Legend:
melanoma tissue = melanoma tissue ex vivo, increasing concentrations of melphalan
Description: FIG. 13. […] Tumor biopsies were cultured ex vivo in the presence of increasing concentrations of melphalan in the absence or presence of the triple combination (CAP) of the Celecoxib, IFNα and poly-I:C. Secretion levels of CC22 and CXCL10 were measured by ELISAs.

[1] = tested on: colorectal cancer tumor tissues; assay: Ex vivo tumor/tissue explant culture, chemokine ELISA; assay type: cell-based, human; settings: for CCL5 expression / production / CXCL10 expression / production: tumor tissues ex vivo, 48 hours, ELISA
Description: FIG. 6. […] (A) Fresh tumor samples from 11 patients with metastatic colorectal cancer were untreated or treated with IFNα and poly-I:C either individually or in combination for 48 hours. The release of CCL5 and CXCL10 into culture media was analyzed by ELISA. Numbers indicate the prevalence of tumors with each chemokine pattern (respective patterns A, B or C). (B) ELISA analysis of CCL5, CCL22 and CXCL10 in tumors untreated or treated with IFNα+pI:C, with or without indomethacin. (C) Heterogeneous response of different tumor lesions from the same patient (CCL5 and CXCL10 production) to the individual components of the chemokine-modulating cocktail. (D) Indomethacin and celecoxib enhance the IFNα/poly-I:C-induced Teff-attracting chemokine expression, but suppress Treg-attracting chemokine expression in colorectal cancer lesions. All cultures were for 48 hr. Combined data from the tumors of 3 different patients (n=3).
FIG. 7. […] (A) In-situ hybridization for respective chemokine mRNA (black grains) in tumor biopsies which were either left untreated or treated with the combination of indomethacin, IFNa and poly-I:C (IAP). (B) ELISA analysis of the chemokine contents in the supernatants of 48 hour-cultured tumor tissues (untreated or treated) from 10 different patients.
In order to test the feasibility of using these factors to manipulate the complex microenvironment of whole tumor tissues, involving all the above cell types and their interactions, we used an ex vivo tumor/tissue explant culture system previously developed to study migration of DCs. This system allowed us to avoid nonspecific activation of the chemokine-producing cells during tumor dissociation.

macrophages = assay: Chemokine production by in vitro generated macrophages, ELISA of 48 hr. cultures; assay type: cell-based
Description: FIG. 5. […] Data from one representative experiment of three. […] The concentrations of chemokines in 48 hr. cultures were analyzed by ELISA. […] In order to test the possibility of correcting the chemokine environment in the tumors with low ratios of Teff- to Treg-attracting chemokines, we tested in pilot studies the feasibility of modulating their production using different combinations of IFNα, indomethacin (COX1/2 inhibitor) and poly-I:C in individual populations of tumor-relevant cells (known to infiltrate tumors), such as macrophages, or fibroblasts.

fibroblasts = assay: Chemokine production by fibroblasts, ELISA of 48 hr. cultures; assay type: cell-based
Excerpt: FIG. 5. Interplay between COX inhibitor indomethacin, IFNα and poly-I:C in the induction of a desirable patterns of chemokine expression in isolated cell cultures. (A) Dose-dependent impact of IFNa and poly-I:C on the production of Teff-, and Treg-attracting chemokines by in vitro generated macrophages (see M&M) and in fibroblasts (obtained from Cascade Biological). Data from one representative experiment of three. (B) Effects of indomethacin on Teff-, and Treg-attracting chemokines produced by macrophages (N=3) by ELISA analysis. The concentrations of chemokines in 48 hr. cultures were analyzed by ELISA.
In order to test the possibility of correcting the chemokine environment in the tumors with low ratios of Teff- to Treg-attracting chemokines, we tested in pilot studies the feasibility of modulating their production using different combinations of IFNα, indomethacin (COX1/2 inhibitor) and poly-I:C in individual populations of tumor-relevant cells (known to infiltrate tumors), such as macrophages, or fibroblasts.

[2] = tested on: marginal liver tissue and liver-metastatic colorectal cancer; assay: Glycogen phosphorylase mRNA expression as check of tissue survival; assay type: cell-based, human; settings: at 20 μM
Description: (§1) FIG. 9. Selective induction of CXCL10 and CCL5 in liver metastases compared to normal liver tissues: role of NF-κB. Matched samples of marginal liver tissues and liver-metastatic colorectal cancer tissues (3 biopsies in 1 ml in 24 well plate), were cultured for 24 hrs either untreated or treated with IFNα+poly-I:C+indomethacin and (A) analyzed for CCL5 and CXCL10 expression by Taqman. […] The supernatants were analyzed for CCL5 production by ELISA (see matched CXCL10 data in FIG. 4). (C) CAY10470 (20 μM) effects on liver glycogen phosphorylase mRNA expression in matched marginal liver tissue and liver-metastatic colorectal cancer.
CAY10470, used in these experiments (at 20 μM), was non-toxic, as shown by similar expression of glycogen phosphorylase mRNA in untreated and treated tissues (FIG. 9C).

[3] = tested on: liver-metastatic colorectal cancer tissues versus marginal liver tissues; assay: Chemokine production in matched liver-metastatic tumor and marginal liver tissues (ELISA, Taqman); assay type: cell-based, human; settings: tumor tissues, NF-κB inhibitor at 20 μM
Description: as §1
Using matched tissue samples from 10 patients with metastatic colon cancer, we compared the responsiveness to the chemokine-modulating regimen between liver-metastatic tumor tissues and marginal tissues. […] This increased responsiveness of tumors compared to marginal tissues was not due to decreased survival of the marginal tissues, as determined by undisturbed expression levels of glycogen phosphorylase (FIG. 9C).

[4] = whole tumor tissues, COX inhibitor added to IFNα and poly-I:C

**Q.** How did the “ratio between Treg-attracting and Teff-attracting chemokines (CCL22/CXCL10)” value (melanoma tissue) turn out when `N[C@@H](Cc1ccc(N(CCCl)CCCl)cc1)C(=O)O` [melphalan] was run?
**A.** undesirable elevation

**Q.** How did the “IFNα/poly-I:C-induced Teff-attracting chemokine expression” value ([1]; colorectal cancer lesions, 48 hr, tumors of 3 patients) turn out when `COc1ccc2c(c1)c(CC(=O)O)c(C)n2C(=O)c1ccc(Cl)cc1` [indomethacin] was run?
**A.** enhance

**Q.** What about the Treg-attracting chemokine expression ([1]; colorectal cancer lesions, with IFNα/poly-I:C, 48 hr, tumors of 3 patients) of the same compound?
**A.** suppress

**Q.** And the CCL22 levels [1, 4]?
**A.** reduced

**Q.** And the “production of CCL5 induced by the combination IFNα and poly-I:C” value [1, 4]?
**A.** further enhanced

**Q.** And the “production of CXCL10 induced by the combination IFNα and poly-I:C” value [1, 4]?
**A.** further enhanced

**Q.** What about the “production of CCL22” value (macrophages) of the same compound?
**A.** suppression of CCL22 production

**Q.** What about the “effects of IFNα and poly-I:C on Teff- and Treg-attracting chemokines (CCL5, CXCL10 induction, CCL22 suppression)” value (macrophages; indomethacin added) of the same compound?
**A.** further potentiated

**Q.** For IFNα, which “CCL5 expression / production” value [1] is on record?
**A.** variable chemokine expression

**Q.** And the “CXCL10 expression / production” value [1]?
**A.** variable chemokine expression

**Q.** And the “production of CCL22” value (macrophages)?
**A.** strong suppressive effect

**Q.** And the “production of CCL22” value (fibroblasts)?
**A.** strong suppressive effect

**Q.** Which “toxicity (expression of glycogen phosphorylase mRNA in untreated and treated tissues)” value [2] does the source give for `Nc1ccc2ncnc(NCCc3ccc(Oc4ccccc4)cc3)c2c1` [CAY10470] here?
**A.** non-toxic

**Q.** And the “CCL5 up-regulation by the chemokine-modulating regimen” value [3]?
**A.** blocked

**Q.** And the “CXCL10 induction by IFNα/poly-I:C/indomethacin” value [3]?
**A.** completely abrogated

**Q.** “polyinosinic-polycytidylic acid [poly-I:C]” was tested. Which “CCL5 expression / production” value [1] did it give?
**A.** variable chemokine expression

**Q.** What about the “CXCL10 expression / production” value [1] of the same compound?
**A.** variable chemokine expression
